Where a name gives a salt, the structure may show the parent alone.
Assays:
[1] = s.c., mice; cited from earlier work
Rat Colon Tumor = conditions: rats, subcutaneous, intraperitoneal, or implant-osmotic pump, cited from earlier work
[2] = tested on: P. falciparum ATCC 50005 (chloroquine resistant); assay: Growth inhibition of chloroquine-resistant P. falciparum in culture (96-well plates, microscopy and flow cytometry); format: cell-based; conditions: chloroquine-resistant strain
Experimental: Numerous experiments were conducted regarding dequalinium compounds and their ability to control the growth of chloroquine-resistant and sensitive strains of P. falciparum malaria parasites. Specifically, two commonly-known strains of P. falciparum were obtained from the American Type Culture Collection (ATCC), namely, ATCC 50005 (chloroquine resistant) and ATCC 50028 (chloroquine sensitive). The methods of culture and culture materials used in the experiments described herein are known in the art and discussed in Trager W. and Jensen, J., "Human Malaria Parasites in Continuous Culture" Science, […] (1976).
Assays for growth inhibition of P. falciparium were performed using the above parasites in standard 96-well test plates. All assays were performed in duplicate. The tests involved the use of a dequalinium chloride salt solution (from the Sigma Company of St. Louis, Mo.--product no. D3768) at concentration levels of 32, 16, 8, 4, 2, 1, and 0 nanograms/ml.
The parasites were permitted to incubate in the test media for 72 hours. At 24 hour intervals, new media and test substances were added, and an aliquot of the incubation mixture was removed for microscopic examination,In addition, the parasites were examined by flow cytometry using the techniques discussed in Makler, M. T., et al., "Thiazone Orange: A New Dye for Plasmodium Species Analysis" Cytometry, 8:568-570 (1987).
The entire experiment was terminated after three days. The data in FIG. 1 clearly illustrates the effectiveness of dequalinium salts against chloroquine-resistant parasites. The "Y" axis in FIG. 1 involves the percentage of erythrocytes in the test media which were infected with viable parasites. The "X" axis involves the concentration of dequalinium chloride used (in nanograms/ml.) At 0 nanograms/ml, parasite growth was extensive, with a % parasite infection of about 17 % after 72 hours.

SMILES: Cc1cc(N)c2ccccc2[n+]1CCCCCCCCCC[n+]1c(C)cc(N)c2ccccc21 [dequalinium chloride, 1,1'-(1,10-Decanediyl)bis-[4-amino-2-methylquinolinium] salt]
- LD50 [1]: 70 mg/kg
- tumor growth inhibition (Rat Colon Tumor; 1.0 mg/kg): significant tumor growth inhibition
- survival (Rat Colon Tumor; sublethal dose 1.0 mg/kg): all survived
- minimal effective concentration ([2]; Plasmodium falciparum, ATCC50005, read-out: concentration level at and above which parasite growth was strongly inhibited and no viable parasites remained, after 72 hours): ≥ 0.001 µg/mL
- parasite growth ([2]; 1.0 nanogram/ml and above): strongly inhibited
- viable parasites remaining ([2]; 1.0 nanogram/ml and above, after 72 hours): no viable parasites remained

Source: US4946849A, “Method for the treatment of malaria” (Flow Incorporated, priority 1989, dated 1990)
